Article PMC5847527, “Identification of a novel 2-oxindole fluorinated derivative as in vivo antitumor agent for prostate cancer acting via AMPK activation” (Scientific Reports, 2018)

Columns and labels:
[1] = biological target: T1, AMPK (Homo sapiens, UniProt Q13131); assay: AMPK and ACC phosphorylation by Western blot in PC-3 cells; format: cell-based; conditions: 25 µM, 1 hour
T1 construct: endogenous in cells; host or cells: PC-3, DU145, LNCaP
Excerpt: To investigate the effect of the compounds on AMPK activity at cellular level, compounds 8a-c and 9a-b were selected to perform AMPK phosphorylation assays in human prostate cancer cell lines. We use the PC-3 cell line as it is androgen-resistant and represents the advanced and aggressive stage of prostate cancer. […] AMPK inhibits lipogenic pathway through phosphorylation of its well-known substrate acetyl-CoA carboxylase (ACC). To confirm the modulation of AMPK activity in prostate cells by the compounds, we determined levels of phosphorylated ACC in 2-oxindole fluorinated derivatives-treated cells. […] It is worthy to note that the highest ACC phosphorylation was obtained with compound 8c denoting a powerful activity of this compound in PC-3 cells.
Figure 2 Effect of 2-oxindole fluorinated derivatives on AMPK activity in prostate cancer cells. (A) PC-3, DU145 and LNCaP cells were treated with 25 µM of the selected 2-oxindole fluorinated derivatives for 1 hour. Levels of the phosphorylated AMPK (pAMPK), phosphorylated ACC (pACC) and their total forms were determined by Western blot. Upper panel, a representative Western blot of three different experiments. β-tubulin (β-Tub) serves as a loading control. […] Lower panels, densitometric analyses of bands represented as the mean of the ratio pAMPK/AMPK or pACC/ACC ± SD of three different experiments. *p < 0.05 compared with the controls by one-way ANOVA followed by Fisher’s LSD test; ^#p < 0.05 compared with 2-oxindole fluorinated derivates or with the AMPK activators AMP or A769662 by one-way ANOVA followed by Tukey test.
Human prostate cancer epithelial PC-3, DU145 and LNCaP and human prostate normal RWPE-1 cells were purchased from American Type Culture Collection (ATCC CRL-1435 CRL-1740 and CRL 11609 respectively) (Rockville, MD, USA). The human prostate normal PNT2 cell line was purchased to ECACC (European Collection of Cell cultures, Salisbury, SP4 0JG, UK). Cells were routinely grown in RPMI 1640 medium supplemented with 100 IU/ml penicillin G sodium, 100 µg/ml streptomycin sulfate, 0.25 µg/ml amphotericin B (Invitrogen, Paisley, UK) and 10% fetal calf serum. Cells were used at passages between 10–20. For treatment experiments, cells were plated and grown over night, the medium was then replaced with serum-free RPMI 1640 for 24 hours and then incubated with different doses of the compounds for the indicated times.
Cells were lysed in Lysis buffer (50 mM Tris pH 7.4, 0.8 M NaCl, 5 mM MgCl2, 0.1% Triton X-100) containing Protease Inhibitor and Phosphatase inhibitor Cocktails (Roche, Basel, Switzerland). Protein concentrations were measured by BioRad™ protein assay kit (Richmond, CA, USA). Equal amount of protein (20 μg) from each sample was separated on 8% SDS–PAGE gels and transferred to PVDF membranes (BioRad). The membranes were blocked with blocking buffer (1× TBS, 0.1% Tween 20 with 5% w/v fat-free dry milk), washed and incubated with primary antibodies at 4 °C for 12 h. The membranes were subsequently washed with TBS-T (1× TBS and 0.1% Tween 20) and incubated with horseradish peroxidase-conjugated anti-mouse or anti-rabbit IgG antibodies (Sigma, St Louis, MO, USA) at room temperature for 1 h. The immune complex was visualized with an ECL system (Cell Signaling Technology). Films were analyzed by densitometry. The anti-pAMPKα1-thr172, pACC-ser79, pP53, P21, pRaptor and the antibodies against the corresponding total forms were obtained from Cell Signaling Technology (Danvers, MA, USA). The anti-caspase 3 and anti-procaspase 3 were from Santa Cruz Biotechnology (Dallas, Texas, USA). The anti-HIF1A was from Novus Biologicals LLC (Littleton, CO, USA). The anti-Cyclin D1 antibody was obtained from ThermoFisher (Alcobendas, Madrid, Spain). All the other chemicals were obtained from Sigma (St. Louis, MO, USA).

[2] = test system: Raptor; assay: Raptor phosphorylation on Ser792 by Western blot in PC-3 and LNCaP cells; format: cell-based, human; conditions: 25 µM
Description: To further confirm the compound 8c-induced activation of AMPK, PC-3 and LNCaP cells were incubated with the compound for 1 h and 24 hours in the presence of the AMPK inhibitor Dorsomorphin. […] Accordingly, ACC phosphorylation was increased at 1 h and 24 h and prevented by Dorsomorphin in both cell lines. AMPK inhibits mTORC1 through phosphorylation of Raptor on two well-conserved serine residues (ser722 and ser792) inducing cell-cycle arrest in response to an energy stress. To further support the 8c-induced AMPK activation, we determined Raptor phosphorylation on Ser792 in prostate cells.
Figure 5 AMPK activation by compound 8c in prostate cancer cells. (A) PC-3 and LNCaP cells were treated with vehicle, 25 µM compound 8c, 25 µM compound 8c + 5 μM Dorsomorphin (8c + D) or 5 μM Dorsomorphin (D), for 1 hour or 24 hours and levels of the phosphorylated AMPK (pAMPK), phosphorylated ACC (pACC), phosphorylated Raptor (pRaptor) forms and HIF1α were determined by Western blot. Upper panel, representative Western blot of three different experiments. β-tubulin (β-Tub) serves as a loading control. […] (B) Cell viability monitored by MTT assay in PC-3 and LNCaP cells treated with vehicle, 25 µM and 50 μM compound 8c alone or in the presence of 5 μM Dorsomorphin or transfected with control siRNA (siC) or α1AMPK-selective siRNA (siAMPK). […]

T1 sequence (Q13131 whole entry): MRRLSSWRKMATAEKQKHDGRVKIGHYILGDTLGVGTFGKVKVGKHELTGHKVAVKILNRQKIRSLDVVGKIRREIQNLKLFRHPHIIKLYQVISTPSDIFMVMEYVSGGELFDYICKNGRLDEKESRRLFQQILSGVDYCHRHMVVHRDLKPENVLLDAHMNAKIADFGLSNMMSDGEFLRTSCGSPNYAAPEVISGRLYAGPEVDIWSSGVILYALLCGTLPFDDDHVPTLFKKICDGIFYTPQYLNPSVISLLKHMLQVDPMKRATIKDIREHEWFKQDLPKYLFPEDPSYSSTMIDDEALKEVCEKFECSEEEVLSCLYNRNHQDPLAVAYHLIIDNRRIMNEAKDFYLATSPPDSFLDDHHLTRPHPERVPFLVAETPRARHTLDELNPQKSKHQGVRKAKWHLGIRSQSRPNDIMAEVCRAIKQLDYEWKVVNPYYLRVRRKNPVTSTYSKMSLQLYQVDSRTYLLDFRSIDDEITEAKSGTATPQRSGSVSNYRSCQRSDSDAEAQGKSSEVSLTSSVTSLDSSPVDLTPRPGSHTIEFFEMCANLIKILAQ
T1 sequence (Q9Y478 2-270 partner limits assumed): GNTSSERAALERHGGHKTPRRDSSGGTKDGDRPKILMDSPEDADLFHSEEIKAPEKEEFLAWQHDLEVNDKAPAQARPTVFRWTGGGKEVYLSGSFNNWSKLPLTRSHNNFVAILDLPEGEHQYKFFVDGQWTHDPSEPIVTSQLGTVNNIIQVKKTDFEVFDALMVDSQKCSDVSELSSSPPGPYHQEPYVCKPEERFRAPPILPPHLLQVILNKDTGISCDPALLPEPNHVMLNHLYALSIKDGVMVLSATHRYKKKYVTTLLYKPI
T1 sequence (P54619 whole entry partner): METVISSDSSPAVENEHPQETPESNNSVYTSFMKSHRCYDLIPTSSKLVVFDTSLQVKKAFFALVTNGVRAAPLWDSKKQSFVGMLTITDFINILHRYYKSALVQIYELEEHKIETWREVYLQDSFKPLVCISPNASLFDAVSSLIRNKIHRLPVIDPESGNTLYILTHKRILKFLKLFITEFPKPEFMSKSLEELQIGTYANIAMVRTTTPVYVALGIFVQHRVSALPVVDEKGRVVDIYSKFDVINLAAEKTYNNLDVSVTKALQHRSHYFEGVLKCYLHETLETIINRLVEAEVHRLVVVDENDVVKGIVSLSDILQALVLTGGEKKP

Structure (SMILES): O=C1Nc2ccccc2C1(F)Cc1ccc(-c2ccccc2)o1 (stereo not drawn) [Compound 8c, 3-fluoro-3-((5-phenylfuran-2-yl)methyl)indolin-2-one]
- ACC phosphorylation (pACC/ACC) [1]: augmented pACC
- Thr172 phosphorylation of AMPK (pAMPK/AMPK) ([1]; compared to controls): significant increase in Thr172 phosphorylation of AMPK
- Raptor phosphorylation on Ser792 (p-Raptor) [2]: increase in p-Raptor
